Consider 2 compounds from US20230183193A1, “4-DIFLUOROMETHYL BENZOYL AMIDES WITH HERBICIDAL ACTION” (BAYER CROPSCIENCE AKTIENGESELLSCHAFT, priority 2017, published 2023).

Common to all, as to type: in vivo
Experiment [1] relates to Abutilon theophrasti. Put plainly: Post-emergence herbicidal action, ABUTH. The settings on record: 80 g/ha, Table D. The procedure, abridged: (§1)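 Herbicidal effect is rated visually as percent versus untreated plants (100% = dead, 0% = like control) about 3 weeks after spraying. Plants were sown in sandy loam in the greenhouse and sprayed on green parts at the one-leaf stage, 2 to 3 weeks post-sowing.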

A further experiment relates to ECHCG. Description: Post-emergence herbicidal action, ECHCG. The settings on record: 80 g/ha, Table C. Put shortly: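 Weed and crop plants grown in sandy loam in the greenhouse, treated at the one-leaf stage 2–3 weeks after sowing. Damage scored visually after about 3 weeks vs untreated controls (0% = control, 100% = dead).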
The subject of experiment [2] is Viola tricolor. Put plainly: Pre-emergence herbicidal action, VIOTR. The settings on record: dosage 320 g/ha, scored visually after 3 weeks vs untreated controls. The procedure, abridged:
(§2)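 Weed seeds were laid out in sandy loam and covered with soil, then the soil surface was treated with an aqueous suspension or emulsion of the formulated compound containing 0.2% wetting agent. Pots stayed in the greenhouse for 3 weeks before damage was rated visually against untreated plants.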

Experiment [3] has as its system Setaria viridis. Description: Post-emergence herbicidal action, SETVI. The settings on record: 80 g/ha, Table C. Put shortly: as §1
Another experiment concerns Cyperus serotinus. Description: Pre-emergence herbicidal action, CYPES. The settings on record: dosage 320 g/ha, scored visually after 3 weeks vs untreated controls. Put shortly:
as §2

Experiment [4] relates to Stellaria media. Put plainly: Pre-emergence herbicidal action, STEME. The settings on record: dosage 320 g/ha, scored visually after 3 weeks vs untreated controls. The procedure, abridged:
as §2

Experiment [5] deals with Avena fatua. Description: Pre-emergence herbicidal action, AVEFA. The settings on record: dosage 320 g/ha, scored visually after 3 weeks vs untreated controls. The procedure, abridged: as §2
Experiment [6] relates to Abutilon theophrasti. Description: Pre-emergence herbicidal action, ABUTH. The settings on record: dosage 320 g/ha, scored visually after 3 weeks vs untreated controls. Put shortly:
as §2

In the next experiment the test system is Pharbitis purpureum. Description: Post-emergence herbicidal action, PHBPU. The settings on record: 80 g/ha, Table D. Put shortly:
as §1

The subject of experiment [7] is Setaria viridis. Description: Pre-emergence herbicidal action, SETVI. The settings on record: dosage 320 g/ha, scored visually after 3 weeks vs untreated controls. The procedure, abridged:
as §2

Experiment [8] deals with Alopecurus myosuroides. Put plainly: Post-emergence herbicidal action, ALOMY. The settings on record: 80 g/ha, Table C. The procedure, abridged: as §1
Experiment [9] has as its system Avena fatua. Description: Post-emergence herbicidal action, AVEFA. The settings on record: 80 g/ha, Table C. Put shortly: as §1
The subject of a further experiment is Matricaria inodora. Description: Pre-emergence herbicidal action, MATIN. The settings on record: dosage 320 g/ha, scored visually after 3 weeks vs untreated controls. Put shortly: as §2
In experiment [10] the test system is Stellaria media. Put plainly: Post-emergence herbicidal action, STEME. The settings on record: 80 g/ha, Table D. Put shortly:
as §1

Experiment [11] deals with Alopecurus myosuroides. Put plainly: Pre-emergence herbicidal action, ALOMY. The settings on record: dosage 320 g/ha, scored visually after 3 weeks vs untreated controls. Put shortly:
as §2

Experiment [12] concerns Amaranthus retroflexus. Description: Post-emergence herbicidal action, AMARE. The settings on record: 80 g/ha, Table D. The procedure, abridged:
as §1

Experiment [13] concerns Amaranthus retroflexus. Put plainly: Pre-emergence herbicidal action, AMARE. The settings on record: dosage 320 g/ha, scored visually after 3 weeks vs untreated controls. The procedure, abridged:
as §2

The subject of experiment [14] is Viola tricolor. Description: Post-emergence herbicidal action, VIOTR. The settings on record: 80 g/ha, Table D. Put shortly:
as §1

The structures appear in SMILES notation.

Take `CCSc1c(C(F)F)ccc(C(=O)Nc2nnc(C)o2)c1Br` [Example 7-62]: the “herbicidal activity ABUTH” value in the experiment with Abutilon theophrasti [1] and with Abutilon theophrasti [6] was 100% in each case. In the experiment on ECHCG, the “Herbicidal activity ECHCG” value came out at 100%. In addition, the “herbicidal activity VIOTR” value with Viola tricolor [2] and in the experiment with Viola tricolor [14] was 100% in each case. The “herbicidal activity SETVI” value in the experiment on Setaria viridis [3] and in the experiment with Setaria viridis [7] was 100% in each case. For the same compound, the “herbicidal activity CYPES” value with Cyperus serotinus was 80%. In addition, the “Herbicidal activity STEME” value in the experiment with Stellaria media [4] and with Stellaria media [10] was 100% each time. The “herbicidal activity AVEFA” value turned out to be 90% with Avena fatua [5] and 100% with Avena fatua [9]. Also, the “Herbicidal activity PHBPU” value in the experiment with Pharbitis purpureum worked out at 90%. In addition, the “herbicidal activity ALOMY” value in the experiment with Alopecurus myosuroides [8] is 90%; in the experiment with Alopecurus myosuroides [11], 100%. The “herbicidal activity MATIN” value in the experiment on Matricaria inodora was found to be 90%. Moreover, the “herbicidal activity AMARE” value in the experiment with Amaranthus retroflexus [12] and in the experiment on Amaranthus retroflexus [13] was 100% throughout.
Consider `CC[S+]([O-])c1c(C(F)F)ccc(C(=O)Nc2nnc(C)o2)c1I` (stereo not drawn) [Example 7-75], for which the “herbicidal activity ABUTH” value with Abutilon theophrasti [1] amounted to 90%; in the experiment on Abutilon theophrasti [6], 100%. For the same compound, in the experiment on ECHCG, the “Herbicidal activity ECHCG” value turned out to be 100%. Moreover, the “herbicidal activity VIOTR” value with Viola tricolor [2] and in the experiment on Viola tricolor [14] was 100% in each case. Moreover, the “herbicidal activity SETVI” value with Setaria viridis [3] is recorded as 90%; in the experiment with Setaria viridis [7], 100%. Further, the “herbicidal activity CYPES” value with Cyperus serotinus was 100%. In addition, the “Herbicidal activity STEME” value turned out to be 100% with Stellaria media [4] and 80% in the experiment on Stellaria media [10]. Also, the “herbicidal activity AVEFA” value in the experiment on Avena fatua [5] and with Avena fatua [9] was 100% throughout. Further, in the experiment on Pharbitis purpureum, the “Herbicidal activity PHBPU” value is on record as 80%. The “herbicidal activity ALOMY” value in the experiment with Alopecurus myosuroides [8] is given as 80%; with Alopecurus myosuroides [11], 100%. In addition, in the experiment with Matricaria inodora, the “herbicidal activity MATIN” value was determined as 100%. Moreover, the “herbicidal activity AMARE” value in the experiment with Amaranthus retroflexus [12] and in the experiment on Amaranthus retroflexus [13] was 100% each time.
